Test results from US20150307520A1, “NOVEL HETEROARYL AND HETEROCYCLE COMPOUNDS, COMPOSITIONS AND METHODS THEREOF” (HUTCHISON MEDIPHARMA LIMITED, priority 2012, published 2015).

Legend:
Type in all cases: biochemical
p110β/p85α = p110β/p85α (Homo sapiens, UniProt P42338); assay: Transcreener KINASE Assay, kinase inhibition of p110β/p85α; conditions: for PI3Kβ IH % @ 1 uM: 1 uM test compound; for IC50: read-out: PI3Kβ IC50
Description: (§1) PI3K kinases including p110α/p85α, p110δ/p85α and p110γ are purchased from Invitrogen, and p110β/p85α is from Millipore.
(§2) Primary screening data and IC50 values are measured using Transcreener™ KINASE Assay (Bellbrook, Catalog #3003-10K). […] It is a universal, homogenous, high throughput screening (HTS) technology using a far-red, competitive fluorescence polarization immunoassay based on the detection of ADP to monitor the activity of enzymes that catalyze group transfer reactions. Briefly, the Transcreener KINASE Assay is designed as a simple two-part, endpoint assay.
(§3) In the first step, the 25 ul kinase reaction is performed by preparing a reaction mixture containing 5 ul test compound (2% DMSO final concentration), 10 ul kinase, buffer (50 mM HEPES, 100 mM NaCl, 1 mM EGTA, 0.03% CHAPS, 3 mM MgCl2, and freshly supplemented 1 mM DTT), and 10 ul 30 uM PIP2/10 uM ATP. The plate is sealed and incubated for 80 min at room temperature. Next, 25 ul ADP detection mix is added per well. The plate is sealed again and incubated for 60 min at room temperature, and then measure fluorescence polarization by Tecan Infinite F500 Reader.
(§4) Data is analyzed and IC50s are generated using the add-in software for Microsoft Excel, Xlfit™ (version 2.0). IH %=(ADP amount under 2% DMSO-ADP amount under test compound)/ADP amount under 2% DMSO.

p110δ/p85α = p110δ/p85α (Homo sapiens, UniProt O00329); assay: Transcreener KINASE Assay, kinase inhibition of p110δ/p85α; conditions: for PI3Kδ IH % @ 1 uM: 1 uM test compound; for IC50: read-out: PI3Kδ IC50
p110δ/p85α, sequence (O00329 whole entry): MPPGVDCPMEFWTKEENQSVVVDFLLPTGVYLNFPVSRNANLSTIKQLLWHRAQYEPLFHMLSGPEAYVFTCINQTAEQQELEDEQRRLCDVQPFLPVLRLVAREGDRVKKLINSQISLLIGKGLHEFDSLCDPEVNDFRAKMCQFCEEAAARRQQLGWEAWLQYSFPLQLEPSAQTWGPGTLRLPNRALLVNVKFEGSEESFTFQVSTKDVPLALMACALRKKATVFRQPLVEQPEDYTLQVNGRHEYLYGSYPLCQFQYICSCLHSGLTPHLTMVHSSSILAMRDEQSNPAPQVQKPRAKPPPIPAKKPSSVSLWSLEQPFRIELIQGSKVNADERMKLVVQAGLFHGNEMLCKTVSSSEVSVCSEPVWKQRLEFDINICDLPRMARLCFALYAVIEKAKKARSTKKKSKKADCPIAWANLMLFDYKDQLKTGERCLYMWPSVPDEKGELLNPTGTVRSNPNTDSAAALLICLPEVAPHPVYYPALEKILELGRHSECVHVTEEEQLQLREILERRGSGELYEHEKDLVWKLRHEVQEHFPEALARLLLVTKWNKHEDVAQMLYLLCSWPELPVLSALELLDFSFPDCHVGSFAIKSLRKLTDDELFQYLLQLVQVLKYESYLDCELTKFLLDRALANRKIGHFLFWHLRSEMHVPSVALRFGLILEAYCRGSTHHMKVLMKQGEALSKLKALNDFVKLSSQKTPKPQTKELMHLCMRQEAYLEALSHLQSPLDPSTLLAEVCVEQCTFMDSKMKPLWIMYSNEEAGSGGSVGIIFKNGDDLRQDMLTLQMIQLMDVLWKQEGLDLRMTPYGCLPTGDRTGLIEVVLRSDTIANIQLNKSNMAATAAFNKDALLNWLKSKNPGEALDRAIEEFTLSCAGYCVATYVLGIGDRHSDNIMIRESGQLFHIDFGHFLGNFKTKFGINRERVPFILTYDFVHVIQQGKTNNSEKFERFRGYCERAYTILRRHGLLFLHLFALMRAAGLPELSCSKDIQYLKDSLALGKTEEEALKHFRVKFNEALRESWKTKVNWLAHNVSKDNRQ
p110δ/p85α, sequence (P27986 whole entry partner): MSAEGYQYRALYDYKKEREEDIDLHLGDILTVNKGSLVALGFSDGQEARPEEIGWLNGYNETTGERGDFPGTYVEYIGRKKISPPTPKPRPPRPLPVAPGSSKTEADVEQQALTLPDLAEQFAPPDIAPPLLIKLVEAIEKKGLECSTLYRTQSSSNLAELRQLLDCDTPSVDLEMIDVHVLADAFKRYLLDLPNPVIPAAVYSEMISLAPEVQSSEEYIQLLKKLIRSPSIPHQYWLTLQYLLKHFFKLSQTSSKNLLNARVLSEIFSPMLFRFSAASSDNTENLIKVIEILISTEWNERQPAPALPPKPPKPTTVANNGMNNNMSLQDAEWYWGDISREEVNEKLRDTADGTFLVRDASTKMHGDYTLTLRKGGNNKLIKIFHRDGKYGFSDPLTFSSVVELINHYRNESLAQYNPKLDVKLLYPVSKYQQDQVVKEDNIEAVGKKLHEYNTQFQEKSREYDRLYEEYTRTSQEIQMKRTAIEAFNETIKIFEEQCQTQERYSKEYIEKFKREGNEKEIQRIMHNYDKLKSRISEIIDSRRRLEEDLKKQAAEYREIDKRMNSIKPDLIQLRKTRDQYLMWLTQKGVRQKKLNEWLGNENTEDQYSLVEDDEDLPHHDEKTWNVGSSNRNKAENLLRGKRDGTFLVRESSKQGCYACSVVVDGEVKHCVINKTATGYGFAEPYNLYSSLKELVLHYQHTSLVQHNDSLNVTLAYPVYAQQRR
Description: as §1, §2, §3, §4

p110γ = p110γ (Homo sapiens, UniProt P48736); assay: Transcreener KINASE Assay, kinase inhibition of p110γ; conditions: for PI3Kγ IH % @ 1 uM: 1 uM test compound; for IC50: read-out: PI3Kγ IC50
p110γ, sequence (P48736 whole entry): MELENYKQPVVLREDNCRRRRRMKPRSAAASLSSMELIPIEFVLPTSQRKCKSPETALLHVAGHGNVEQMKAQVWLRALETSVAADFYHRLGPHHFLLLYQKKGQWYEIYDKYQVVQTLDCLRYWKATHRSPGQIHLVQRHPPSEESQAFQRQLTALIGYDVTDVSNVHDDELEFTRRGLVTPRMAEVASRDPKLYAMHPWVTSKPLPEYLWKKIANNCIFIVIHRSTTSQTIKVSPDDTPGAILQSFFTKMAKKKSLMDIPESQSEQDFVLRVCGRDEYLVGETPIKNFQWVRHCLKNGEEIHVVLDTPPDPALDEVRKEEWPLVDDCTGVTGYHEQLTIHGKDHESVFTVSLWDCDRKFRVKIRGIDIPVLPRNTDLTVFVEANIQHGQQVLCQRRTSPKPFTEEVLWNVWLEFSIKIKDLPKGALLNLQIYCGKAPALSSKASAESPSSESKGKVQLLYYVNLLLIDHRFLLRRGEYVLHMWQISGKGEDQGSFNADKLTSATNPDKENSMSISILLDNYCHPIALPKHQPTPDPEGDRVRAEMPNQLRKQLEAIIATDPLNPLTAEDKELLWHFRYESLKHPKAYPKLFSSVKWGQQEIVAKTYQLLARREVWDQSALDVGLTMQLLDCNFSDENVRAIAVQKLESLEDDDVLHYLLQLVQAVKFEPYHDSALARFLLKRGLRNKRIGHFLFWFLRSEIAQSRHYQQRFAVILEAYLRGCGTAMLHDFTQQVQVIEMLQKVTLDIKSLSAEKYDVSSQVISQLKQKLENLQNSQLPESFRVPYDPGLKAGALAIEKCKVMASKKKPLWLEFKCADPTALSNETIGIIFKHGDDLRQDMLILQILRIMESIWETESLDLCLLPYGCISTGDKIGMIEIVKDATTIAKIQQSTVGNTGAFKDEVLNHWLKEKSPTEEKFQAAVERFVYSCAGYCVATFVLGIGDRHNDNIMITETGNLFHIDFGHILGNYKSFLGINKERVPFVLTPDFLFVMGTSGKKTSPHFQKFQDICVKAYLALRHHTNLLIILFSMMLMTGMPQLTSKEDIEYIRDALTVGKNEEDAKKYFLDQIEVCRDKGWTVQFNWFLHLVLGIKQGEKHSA
Description: Kinase Inhibition assays of p110α/p85α, p110β/p85α, p110δ/p85α and p110γ PI3K kinases including p110α/p85α, p110δ/p85α and p110γ are purchased from Invitrogen, and p110β/p85α is from Millipore. Primary screening data and IC50 values are measured using Transcreener™ KINASE Assay (Bellbrook, Catalog #3003-10K). […] It is a universal, homogenous, high throughput screening (HTS) technology using a far-red, competitive fluorescence polarization immunoassay based on the detection of ADP to monitor the activity of enzymes that catalyze group transfer reactions. Briefly, the Transcreener KINASE Assay is designed as a simple two-part, endpoint assay. […] The plate is sealed and incubated for 80 min at room temperature. Next, 25 ul ADP detection mix is added per well. The plate is sealed again and incubated for 60 min at room temperature, and then measure fluorescence polarization by Tecan Infinite F500 Reader. Data is analyzed and IC50s are generated using the add-in software for Microsoft Excel, Xlfit™ (version 2.0).

p110β/p85α, sequence (P42338 whole entry): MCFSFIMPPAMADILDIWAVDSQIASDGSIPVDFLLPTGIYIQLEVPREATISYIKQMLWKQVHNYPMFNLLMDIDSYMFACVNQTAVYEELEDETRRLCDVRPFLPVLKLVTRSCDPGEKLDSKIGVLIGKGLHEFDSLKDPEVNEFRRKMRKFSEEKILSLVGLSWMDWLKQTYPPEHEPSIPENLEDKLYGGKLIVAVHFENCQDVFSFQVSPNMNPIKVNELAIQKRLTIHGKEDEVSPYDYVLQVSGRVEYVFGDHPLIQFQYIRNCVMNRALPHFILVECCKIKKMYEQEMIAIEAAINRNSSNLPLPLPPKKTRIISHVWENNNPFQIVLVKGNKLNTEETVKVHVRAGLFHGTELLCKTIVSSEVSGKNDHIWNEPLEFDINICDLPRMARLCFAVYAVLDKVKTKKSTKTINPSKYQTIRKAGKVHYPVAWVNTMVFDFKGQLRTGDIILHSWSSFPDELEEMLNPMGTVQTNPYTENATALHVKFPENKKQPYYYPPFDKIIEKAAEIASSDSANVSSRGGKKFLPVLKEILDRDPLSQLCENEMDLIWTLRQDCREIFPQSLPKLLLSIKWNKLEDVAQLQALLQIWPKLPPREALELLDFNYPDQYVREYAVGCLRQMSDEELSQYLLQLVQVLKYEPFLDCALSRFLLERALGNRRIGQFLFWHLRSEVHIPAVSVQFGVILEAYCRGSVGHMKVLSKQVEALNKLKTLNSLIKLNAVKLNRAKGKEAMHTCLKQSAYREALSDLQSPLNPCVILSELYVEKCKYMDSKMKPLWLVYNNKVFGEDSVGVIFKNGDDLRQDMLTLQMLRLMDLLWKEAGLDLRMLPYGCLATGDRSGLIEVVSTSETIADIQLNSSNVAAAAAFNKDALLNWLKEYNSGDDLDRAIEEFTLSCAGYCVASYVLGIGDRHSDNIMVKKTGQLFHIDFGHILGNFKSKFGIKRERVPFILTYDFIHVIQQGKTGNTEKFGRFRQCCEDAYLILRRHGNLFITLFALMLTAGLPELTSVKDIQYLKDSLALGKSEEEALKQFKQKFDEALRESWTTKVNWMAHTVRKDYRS
p110β/p85α, sequence (P27986 2-724 partner): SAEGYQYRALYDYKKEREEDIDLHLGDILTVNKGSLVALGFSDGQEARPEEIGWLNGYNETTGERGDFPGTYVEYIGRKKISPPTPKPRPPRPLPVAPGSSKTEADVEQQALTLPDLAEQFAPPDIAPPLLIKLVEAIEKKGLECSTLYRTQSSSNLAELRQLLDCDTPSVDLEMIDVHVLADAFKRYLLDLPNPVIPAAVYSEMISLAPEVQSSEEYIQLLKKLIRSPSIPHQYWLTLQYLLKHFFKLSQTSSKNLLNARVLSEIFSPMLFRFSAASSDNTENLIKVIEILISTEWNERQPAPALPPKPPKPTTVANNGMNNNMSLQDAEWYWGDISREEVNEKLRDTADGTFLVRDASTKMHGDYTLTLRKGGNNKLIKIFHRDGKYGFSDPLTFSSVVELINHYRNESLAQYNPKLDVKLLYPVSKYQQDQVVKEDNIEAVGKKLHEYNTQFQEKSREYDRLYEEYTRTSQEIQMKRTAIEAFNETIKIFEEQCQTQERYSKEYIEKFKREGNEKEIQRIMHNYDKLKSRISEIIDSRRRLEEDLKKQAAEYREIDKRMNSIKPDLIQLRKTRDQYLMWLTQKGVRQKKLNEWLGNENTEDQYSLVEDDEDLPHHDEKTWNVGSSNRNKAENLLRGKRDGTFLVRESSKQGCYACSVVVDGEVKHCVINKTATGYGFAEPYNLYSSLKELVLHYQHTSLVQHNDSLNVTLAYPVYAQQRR

Row | Structure (SMILES) | PI3Kβ IH % @ 1 uM (p110β/p85α) [%] | IC50 (p110β/p85α) [nM] | PI3Kδ IH % @ 1 uM (p110δ/p85α) [%] | IC50 (p110δ/p85α) [nM] | PI3Kγ IH % @ 1 uM (p110γ) [%] | IC50 (p110γ) [nM]
1 | C[C@H]1CCN(c2nc(N)ncc2C#N)C1c1nn2ccc(Cl)c2c(=O)n1-c1ccccc1 (stereo partly shown) [Compound 236] | 79.8 |  | >100 |  | 94.9 | 
2 | C[C@@H](Nc1nc(N)ncc1C#N)c1cc2ncc(Cl)n2c(=O)n1-c1ccccc1 [Compound 384, (R)-2-amino-4-((1-(3-chloro-5-oxo-6-phenyl-5,6-dihydroimidazo[1,2-c]pyrimidin-7-yl)ethyl)amino)pyrimidine-5-carbonitrile] | 24.7 |  | 91.0 | 240 | 53.6 | 
3 | CC(O)c1cnc(N)nc1N1CC[C@H]1c1nn2ccc(Cl)c2c(=O)n1-c1ccccc1 (stereo partly drawn) [Compound 357, 2-((2S)-1-(2-amino-5-(1-hydroxyethyl)pyrimidin-4-yl)azetidin-2-yl)-5-chloro-3-phenylpyrrolo[2,1-f][1,2,4]triazin-4(3H)-one] | 5 |  | 37.9 |  | 66.2 | 
4 | C[C@H]1CCN(c2ncnc3[nH]cnc23)C1c1nn2ccc(Cl)c2c(=O)n1-c1ccccc1 (stereo partly shown) [Compound 234] | 83.4 |  | >100 |  | >100 | 
5 | Nc1nc(N2CC[C@H]2c2nn3ccc(Cl)c3c(=O)n2-c2ccccc2)c2ncccc2n1 [Compound 334] | 11.2 |  | 25.7 |  | 82.1 | 68
6 | COCc1ccn2nc([C@@H]3CCCN3c3ncnc4[nH]cc(C#N)c34)n(-c3ccccc3)c(=O)c12 [Compound 150] | 31.5 |  | >100 | 3 | 92.6 | 92
7 | CNc1ncnc(N2CCC[C@H]2c2nn3ccc(Cl)c3c(=O)n2-c2ccccc2)n1 [Compound 200] | 28.2 |  | 90.9 | 196 | 93.4 | 190
8 | C[S@@+]([O-])c1c[nH]c2ncnc(N3C[C@@H](C#N)C[C@H]3c3nn4ccc(Cl)c4c(=O)n3-c3cccc(F)c3)c12 [Compound 349, (3S,5S)-5-(5-chloro-3-(3-fluorophenyl)-4-oxo-3,4-dihydropyrrolo[2,1-f][1,2,4]triazin-2-yl)-1-(5-((R)-methylsulfinyl)-7H-pyrrolo[2,3-d]pyrimidin-4-yl)pyrrolidine-3-carbonitrile] | 29.5 |  | 92.6 | 111 | 76.6 | 268
9 | O=c1c2c(F)ccn2nc([C@@H]2C[C@H](F)CN2c2ncnc3[nH]cnc23)n1-c1ccccc1 [Compound 132, 5-fluoro-2-((2S,4S)-4-fluoro-1-(9H-purin-6-yl)pyrrolidin-2-yl)-3-phenylpyrrolo[2,1-f][1,2,4]triazin-4(3H)-one] | 74.5 | 338 | >100 | 9 | >100 | 70
10 | N#Cc1c[nH]c2ncnc(N3CCC[C@H]3c3nn4ccc(Cl)c4c(=O)n3CC(F)(F)F)c12 [Compound 67] | 71.3 | 188 | 98.1 | 7 | 61.0 | 
11 | N#Cc1c[nH]c2ncnc(N3CC[C@H]3c3nn4ccc(Cl)c4c(=O)n3CC3CC3)c12 [Compound 371, (S)-4-(2-(5-chloro-3-(cyclopropylmethyl)-4-oxo-3,4-dihydropyrrolo[2,1-f][1,2,4]triazin-2-yl)azetidin-1-yl)-7H-pyrrolo[2,3-d]pyrimidine-5-carbonitrile] | 17.5 |  | 89.8 | 70 | 74.4 | 317
12 | C[C@H]1CN(c2nc(N)ncc2C#N)C1c1nn2ccc(F)c2c(=O)n1-c1ccccc1 (stereo partly shown) [Compound 430] | 28.1 |  | 93.9 | 13 | 87.3 | 52
13 | N#Cc1cccc(-n2c([C@@H]3CCCN3c3ncnc4[nH]cnc34)nn3ccc(Cl)c3c2=O)c1 [Compound 40] | 19.8 |  | 74.0 |  | 6.5 | 
14 | N#Cc1c[nH]c2ncnc(N3CC[C@H]3c3nn4ccc(C(F)(F)F)c4c(=O)n3-c3ccccc3)c12 [Compound 488] | 29.1 |  | 95.9 | 18 | 87.3 | 63
15 | CN(C)C(=O)c1c[nH]c2ncnc(N3CCC[C@H]3c3nn4ccc(Cl)c4c(=O)n3-c3ccccc3)c12 [Compound 97] | 45.1 |  | 55.1 |  | 84.6 | 144

The remaining lines, values ahead:

Row | PI3Kβ IH % @ 1 uM (p110β/p85α) [%] | IC50 (p110β/p85α) [nM] | PI3Kδ IH % @ 1 uM (p110δ/p85α) [%] | IC50 (p110δ/p85α) [nM] | PI3Kγ IH % @ 1 uM (p110γ) [%] | IC50 (p110γ) [nM] | Structure (SMILES)
16 | 92.8 | 41 | >100 | < 0.46 | 98.7 | 2 | Nc1ncc(-c2c[nH]c3ncnc(N4CC[C@H]4c4nn5ccc(F)c5c(=O)n4-c4ccccc4)c23)cn1 [Compound 180, (S)-2-(1-(5-(2-aminopyrimidin-5-yl)-7H-pyrrolo[2,3-d]pyrimidin-4-yl)azetidin-2-yl)-5-fluoro-3-phenylpyrrolo[2,1-f][1,2,4]triazin-4(3H)-one]
17 | 65.7 | 271 | 99.7 | 1 | >100 | 12 | O=c1c2c(Cl)ccn2nc([C@@H]2C[C@H](F)CN2c2ncnc3[nH]cnc23)n1-c1cccc(F)c1 [Compound 214]
18 | 33.8 |  | >100 | 14 | >100 | 18 | C#Cc1cnc(N)nc1N1CCC[C@H]1c1nn2ccc(Cl)c2c(=O)n1-c1ccccc1 [Compound 238]
19 | 31.9 |  | 95.3 | 32 | 98.7 | 14 | Nc1nc2c(c(N3CC[C@H]3c3nn4ccc(Cl)c4c(=O)n3-c3ccccc3)n1)C(=O)CCN2 [Compound 241]
20 | 98.8 | 12 | >100 | 3 | 98.3 | 5 | CC(=O)c1cnc(N)nc1NC(C)c1cn2ccc(Cl)c2c(=O)n1-c1ccccc1 (stereo not shown) [Compound 273]
21 | −11.0 |  | 68.8 |  | 86.4 | 35 | Nc1nc(N2CCC[C@H]2c2nn3ccc(C4CC4)c3c(=O)n2-c2ccccc2)c2nc[nH]c2n1 [Compound 53]
22 | 65.3 |  | >100 | 1 | 94.3 | 4 | O=c1c2c(Cl)ccn2nc([C@@H]2CCCN2c2ncnc3[nH]cc(F)c23)n1-c1ccccc1 [Compound 147]
23 | 14.5 |  |  | 59 |  | 35 | Nc1nc2c(c(N3CC[C@H]3c3nn4ccc(Cl)c4c(=O)n3-c3ccccn3)n1)C(=O)CCN2 [Compound 379]
24 | 77.2 | 331 | >100 |  | >100 | 5 | Nc1ccc(-c2c[nH]c3ncnc(N4CC[C@H]4c4nn5ccc(F)c5c(=O)n4-c4ccccc4)c23)cn1 [Compound 183]
25 | 79.0 | 275 | 98.0 | 3 | 88.6 | 25 | CS(=O)(=O)[C@H]1C[C@@H](c2nn3ccc(Cl)c3c(=O)n2-c2ccccc2)N(c2ncnc3[nH]cc(C#N)c23)C1 [Compound 365, 4-((2S,4S)-2-(5-chloro-4-oxo-3-phenyl-3,4-dihydropyrrolo[2,1-f][1,2,4]triazin-2-yl)-4-(methylsulfonyl)pyrrolidin-1-yl)-7H-pyrrolo[2,3-d]pyrimidine-5-carbonitrile]
26 | 53.5 |  | 94.2 | 12 | 89.6 | 30 | C[S+]([O-])c1c[nH]c2ncnc(N3CCC[C@H]3c3nn4ccc(Cl)c4c(=O)n3-c3ccc(F)cc3)c12 (stereo partly shown) [Compound 209]
